Earlier results on one molecule are cited in US20110288042A1, “STABLE HIGHLY PURE AZACITIDINE AND PREPARATION METHODS THEREFOR” (CHEMAGIS LTD., priority 2007, published 2011).

The conditions of this data set: reported; cited from earlier work.

As to `O=c1ncccn1[C@@H]1O[C@H](CO)[C@@H](O)[C@H]1O` [zebularine], the “Stability in aqueous solution” value is reported as “stable in aqueous solution”.
